Laboratory results published in PubChem BioAssay AID1963826 (Molecular Pharmacology Branch, DTP, NCI, 2024).
pIC50: −log10 of the molar value.

Test system: 926638-142-R-J1-PDC complex spheroid viability
Assay: Anticancer human tumor 926638-142-R-J1-PDC patient-derived endometrial carcinoma cell line growth inhibition [POLQ]
Settings: for pIC50: curve of first compound; for viability, T/C: stronger effect = lower value; active = viability on the fitted dose curve at most 10% of control; inactive = the rest
Method in brief: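 Growth inhibition in 3D: complex spheroids (tumor PDC, HUVEC, MSC) treated with POLQ inhibitor combinations; where Cmax unknown, highest tested concentration 10 microM, except SN-38 at 1 microM.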

[1] = second compound 0.0316 µM, first compound 0.0316 µM
[2] = second compound 0.0316 µM, first compound 0.1 µM
[3] = second compound 0.0316 µM, first compound 0.316 µM
[4] = second compound 0.0316 µM, first compound 1 µM
[5] = second compound 0.0316 µM, first compound 3.16 µM
[6] = second compound 0.0316 µM, first compound 10 µM
[7] = second compound 0.1 µM, first compound 0.0316 µM
[8] = second compound 0.1 µM, first compound 0.1 µM
[9] = second compound 0.1 µM, first compound 0.316 µM
[10] = second compound 0.1 µM, first compound 1 µM
[11] = second compound 0.1 µM, first compound 3.16 µM
[12] = second compound 0.1 µM, first compound 10 µM
[13] = second compound 0.316 µM, first compound 0.0316 µM
[14] = second compound 0.316 µM, first compound 0.1 µM
[15] = second compound 0.316 µM, first compound 0.316 µM
[16] = second compound 0.316 µM, first compound 1 µM
[17] = second compound 0.316 µM, first compound 3.16 µM
[18] = second compound 0.316 µM, first compound 10 µM
[19] = second compound 1 µM, first compound 0.0316 µM
[20] = second compound 1 µM, first compound 0.1 µM
[21] = second compound 1 µM, first compound 0.316 µM
[22] = second compound 1 µM, first compound 1 µM
[23] = second compound 1 µM, first compound 3.16 µM
[24] = second compound 1 µM, first compound 10 µM
[25] = second compound 3.16 µM, first compound 0.0316 µM
[26] = second compound 3.16 µM, first compound 0.1 µM
[27] = second compound 3.16 µM, first compound 0.316 µM
[28] = second compound 3.16 µM, first compound 1 µM
[29] = second compound 3.16 µM, first compound 3.16 µM
[30] = second compound 3.16 µM, first compound 10 µM
[31] = second compound 10 µM, first compound 0.0316 µM
[32] = second compound 10 µM, first compound 0.1 µM
[33] = second compound 10 µM, first compound 0.316 µM
[34] = second compound 10 µM, first compound 1 µM
[35] = second compound 10 µM, first compound 3.16 µM
[36] = second compound 10 µM, first compound 10 µM
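Also: spheroids exposed to drugs for one week before readout.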
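For viability, T/C in this document: percent viability relative to DMSO vehicle control wells set as 100%.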

CC(C)n1c(=O)n(C)c2cnc3cc(F)c(-c4ccc(OCCCN5CCCCC5)nc4)cc3c21 + Nc1ccc(C#CCN(C(=O)Cc2ncc(C(F)(F)F)cc2C(F)(F)F)c2ccc(F)cc2)nn1
< 5.00: pIC50 (second compound 0.0316 µM) | pIC50 (second compound 0.1 µM) | pIC50 (second compound 0.316 µM) | pIC50 (second compound 1 µM) | pIC50 (second compound 3.16 µM) | pIC50 (second compound 10 µM)
inactive: viability, T/C [1] 105% | viability, T/C [2] 98% | viability, T/C [3] 106% | viability, T/C [4] 107% | viability, T/C [5] 95% | viability, T/C [6] 73.6% | viability, T/C [7] 120% | viability, T/C [8] 103% | viability, T/C [9] 95.6% | viability, T/C [10] 106% | viability, T/C [11] 90.1% | viability, T/C [12] 74.6% | viability, T/C [13] 96.3% | viability, T/C [14] 99.2% | viability, T/C [15] 96% | viability, T/C [16] 93.9% | viability, T/C [17] 84.5% | viability, T/C [18] 65.4% | viability, T/C [19] 104% | viability, T/C [20] 106% | viability, T/C [21] 84.7% | viability, T/C [22] 90% | viability, T/C [23] 83% | viability, T/C [24] 73.7% | viability, T/C [25] 93.5% | viability, T/C [26] 84.7% | viability, T/C [27] 93% | viability, T/C [28] 93.8% | viability, T/C [29] 83.4% | viability, T/C [30] 71.2% | viability, T/C [31] 73.6% | viability, T/C [32] 85.6% | viability, T/C [33] 97.2% | viability, T/C [34] 96.1% | viability, T/C [35] 86.3% | viability, T/C [36] 67.1%

CC1COCCN1c1cc(-c2ccnn2C)c2ccnc(-c3ccn[nH]3)c2n1 (stereo not drawn) + Nc1ccc(C#CCN(C(=O)Cc2ncc(C(F)(F)F)cc2C(F)(F)F)c2ccc(F)cc2)nn1
6.30: pIC50 (second compound 0.0316 µM)
6.55: pIC50 (second compound 1 µM)
active: viability, T/C [6] 9.34% | viability, T/C [12] 9.21% | viability, T/C [24] 9.7% | viability, T/C [30] 8.56%
6.43: pIC50 (second compound 10 µM)
6.45: pIC50 (second compound 3.16 µM)
6.42: pIC50 (second compound 0.316 µM)
6.41: pIC50 (second compound 0.1 µM)
inactive: viability, T/C [1] 101% | viability, T/C [2] 83.7% | viability, T/C [3] 60.3% | viability, T/C [4] 36.7% | viability, T/C [5] 14% | viability, T/C [7] 108% | viability, T/C [8] 85.9% | viability, T/C [9] 50.5% | viability, T/C [10] 33.7% | viability, T/C [11] 14.1% | viability, T/C [13] 104% | viability, T/C [14] 84.7% | viability, T/C [15] 54.5% | viability, T/C [16] 26.7% | viability, T/C [17] 16.8% | viability, T/C [18] 10.1% | viability, T/C [19] 99.7% | viability, T/C [20] 69.6% | viability, T/C [21] 51.7% | viability, T/C [22] 27.5% | viability, T/C [23] 14.3% | viability, T/C [25] 89.8% | viability, T/C [26] 73.6% | viability, T/C [27] 53.9% | viability, T/C [28] 28.6% | viability, T/C [29] 16.7% | viability, T/C [31] 73.3% | viability, T/C [32] 74.5% | viability, T/C [33] 52.5% | viability, T/C [34] 25.7% | viability, T/C [35] 15.1% | viability, T/C [36] 9.63%

COc1ccc([C@@H](O)c2cc(-c3ncnc4cc(N5CCOCC5)ccc34)c(F)cc2Cl)nn1 + Nc1ccc(C#CCN(C(=O)Cc2ncc(C(F)(F)F)cc2C(F)(F)F)c2ccc(F)cc2)nn1
6.35: pIC50 (second compound 0.1 µM)
6.15: pIC50 (second compound 1 µM)
6.27: pIC50 (second compound 10 µM)
inactive: viability, T/C [1] 90.7% | viability, T/C [2] 82% | viability, T/C [3] 58.1% | viability, T/C [4] 47.2% | viability, T/C [5] 20.1% | viability, T/C [6] 14.7% | viability, T/C [7] 101% | viability, T/C [8] 83.3% | viability, T/C [9] 56.6% | viability, T/C [10] 34% | viability, T/C [11] 19.4% | viability, T/C [12] 12.7% | viability, T/C [13] 119% | viability, T/C [14] 101% | viability, T/C [15] 67.1% | viability, T/C [16] 33.9% | viability, T/C [17] 19.8% | viability, T/C [18] 15% | viability, T/C [19] 103% | viability, T/C [20] 88.9% | viability, T/C [21] 71.9% | viability, T/C [22] 41.2% | viability, T/C [23] 20% | viability, T/C [24] 13.2% | viability, T/C [25] 91.6% | viability, T/C [26] 75.8% | viability, T/C [27] 67% | viability, T/C [28] 39.3% | viability, T/C [29] 22.9% | viability, T/C [30] 12.7% | viability, T/C [31] 81.4% | viability, T/C [32] 76.2% | viability, T/C [33] 65.6% | viability, T/C [34] 32% | viability, T/C [35] 15% | viability, T/C [36] 10.2%
6.20: pIC50 (second compound 0.0316 µM) | pIC50 (second compound 3.16 µM)
6.24: pIC50 (second compound 0.316 µM)

Cn1ncnc1[C@H]1c2n[nH]c(=O)c3cc(F)cc(c23)N[C@@H]1c1ccc(F)cc1 + Nc1ccc(C#CCN(C(=O)Cc2ncc(C(F)(F)F)cc2C(F)(F)F)c2ccc(F)cc2)nn1
< 7.00: pIC50 (second compound 0.0316 µM) | pIC50 (second compound 0.1 µM) | pIC50 (second compound 0.316 µM) | pIC50 (second compound 1 µM) | pIC50 (second compound 3.16 µM) | pIC50 (second compound 10 µM)
inactive: viability, T/C (second compound 0.0316 µM, first compound 0.000316 µM) 117% | viability, T/C (second compound 0.0316 µM, first compound 0.001 µM) 89.7% | viability, T/C (second compound 0.0316 µM, first compound 0.00316 µM) 99.6% | viability, T/C (second compound 0.0316 µM, first compound 0.01 µM) 75.7% | viability, T/C [1] 69.8% | viability, T/C [2] 74.5% | viability, T/C (second compound 0.1 µM, first compound 0.000316 µM) 123% | viability, T/C (second compound 0.1 µM, first compound 0.001 µM) 90.1% | viability, T/C (second compound 0.1 µM, first compound 0.00316 µM) 101% | viability, T/C (second compound 0.1 µM, first compound 0.01 µM) 78% | viability, T/C [7] 79.8% | viability, T/C [8] 68.5% | viability, T/C (second compound 0.316 µM, first compound 0.000316 µM) 91.9% | viability, T/C (second compound 0.316 µM, first compound 0.001 µM) 98.5% | viability, T/C (second compound 0.316 µM, first compound 0.00316 µM) 83.6% | viability, T/C (second compound 0.316 µM, first compound 0.01 µM) 84% | viability, T/C [13] 84.9% | viability, T/C [14] 66.2% | viability, T/C (second compound 1 µM, first compound 0.000316 µM) 108% | viability, T/C (second compound 1 µM, first compound 0.001 µM) 96.7% | viability, T/C (second compound 1 µM, first compound 0.00316 µM) 75.6% | viability, T/C (second compound 1 µM, first compound 0.01 µM) 83.2% | viability, T/C [19] 70.4% | viability, T/C [20] 80.5% | viability, T/C (second compound 3.16 µM, first compound 0.000316 µM) 82.3% | viability, T/C (second compound 3.16 µM, first compound 0.001 µM) 96.3% | viability, T/C (second compound 3.16 µM, first compound 0.00316 µM) 92.2% | viability, T/C (second compound 3.16 µM, first compound 0.01 µM) 92.4% | viability, T/C [25] 82.9% | viability, T/C [26] 71.2% | viability, T/C (second compound 10 µM, first compound 0.000316 µM) 94.3% | viability, T/C (second compound 10 µM, first compound 0.001 µM) 99.2% | viability, T/C (second compound 10 µM, first compound 0.00316 µM) 78.7% | viability, T/C (second compound 10 µM, first compound 0.01 µM) 74% | viability, T/C [31] 81.9% | viability, T/C [32] 75.7%
